Among the data in patent US11780845B2 (Relay Therapeutics, Inc., priority 2019, dated 2023) are IC50 values, retold here.

For the assay, the target named is FGFR2 (Homo sapiens (Human), UniProt P21802). The assay is described as follows: FGFR2 Biochemical Caliper Assay. The procedure: Compounds of the present invention were also tested in a FGFR2 Biochemical Caliper Assay. Compounds were prepared in 10 mM DMSO solution and serially diluted into 11 concentrations by 3-fold dilution. […] 5 uL of ATP solution (100 uM) was added to start the reaction and the plate was incubated for 90 minutes, then 70 uL of stopping buffer (0.5M EDTA) was added to terminate the reaction. Each well was analyzed using EZ reader.
Chain of FGFR2 (P21802 22-821): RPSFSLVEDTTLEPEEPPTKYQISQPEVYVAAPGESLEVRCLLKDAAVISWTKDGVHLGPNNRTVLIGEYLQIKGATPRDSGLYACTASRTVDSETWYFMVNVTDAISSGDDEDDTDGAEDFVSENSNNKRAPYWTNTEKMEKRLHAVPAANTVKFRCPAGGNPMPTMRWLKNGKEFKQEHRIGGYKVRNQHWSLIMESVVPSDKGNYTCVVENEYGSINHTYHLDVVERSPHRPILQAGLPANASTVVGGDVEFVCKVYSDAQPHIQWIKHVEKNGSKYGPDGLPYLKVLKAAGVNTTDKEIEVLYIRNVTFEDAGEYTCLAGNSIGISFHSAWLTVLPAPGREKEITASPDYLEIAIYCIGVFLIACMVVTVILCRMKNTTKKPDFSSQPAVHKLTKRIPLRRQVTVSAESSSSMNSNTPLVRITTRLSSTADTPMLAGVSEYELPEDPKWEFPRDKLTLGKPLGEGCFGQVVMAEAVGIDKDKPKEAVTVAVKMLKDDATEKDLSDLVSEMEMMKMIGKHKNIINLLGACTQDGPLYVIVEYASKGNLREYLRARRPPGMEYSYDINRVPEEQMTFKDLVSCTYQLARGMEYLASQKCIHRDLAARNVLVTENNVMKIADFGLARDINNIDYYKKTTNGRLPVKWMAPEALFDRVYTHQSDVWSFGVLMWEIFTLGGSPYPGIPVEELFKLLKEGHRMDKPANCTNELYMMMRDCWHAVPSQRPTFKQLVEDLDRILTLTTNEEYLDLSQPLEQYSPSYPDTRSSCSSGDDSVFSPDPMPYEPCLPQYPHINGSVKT
In the case of `C=C(C)C(=O)Nc1ccc(-c2c(-c3ccc(NC(=O)C4CCC4)cc3)c3c(N)ncnc3n2C)cc1` [Example 226], the IC50 is < 100 nM. Compound `C=C(C)C(=O)Nc1ccc(-c2c(-c3ccc(C4=NNC(C)O4)nc3)c3c(N)ncnc3n2C)cc1` (centres unmarked) [Example 285] registered an IC50 of 1000 to 100000 nM. Under `C=C(C)C(=O)Nc1ccc(-c2c(-c3ccc(C(=O)N4CCCC4)cc3Cl)c3c(N)ncnc3n2C)cc1` [Example 587] stands 1000 to 100000 nM; under `C=CC(=O)Nc1ccc(-c2c(-c3cnn(CC4CCNCC4)c3)c3c(N)ncnc3n2C)cc1` [Example 151], 250 to 1000 nM; under `C=C(C)C(=O)Nc1ccc(-c2c(-c3ccc(Oc4cccc(C)n4)cc3)c3c(N)ncnc3n2CCN(C)C)cc1` [Example 80], 100 to 250 nM. The figure for `C=CC(=O)Nc1ccc(-c2c(-c3ccc(Oc4ccncc4)c(OC)c3)c3c(N)ncnc3n2C)cc1` [Example 39] is 100 to 250 nM; for `C=C(C)C(=O)Nc1ccc(-c2c(-c3ccc4c(c3)CN(C)C4=O)c3c(N)ncnc3n2C)cc1` [Example 209] it is 1000 to 100000 nM; for `C=C(C)C(=O)Nc1ccc(-c2c(-c3cc(OC)ncc3OC)c3c(N)ncnc3n2C)cc1` [Example 144] it is 1000 to 100000 nM. The figure for `C=C(C)C(=O)Nc1ccc(-c2c(-c3ccc(C(=O)N(C)CCOC)cc3)c3c(N)ncnc3n2C)cc1` [Example 284] is 1000 to 100000 nM.

In the case of `C=C(C)C(=O)Nc1ccc(-c2c(-c3ccc(Oc4ccccc4)cc3)c3c(N)ncnc3n2C)cc1` [Example 23], the IC50 lay within 250 to 1000 nM. Under `C=C(C)C(=O)Nc1ccc(-c2c(-c3cc(F)c(C(=O)NCC(C)(C)OC)c(F)c3)c3c(N)ncnc3n2C)cc1` [Example 470] stands 100 to 250 nM; under `C=C(C)C(=O)Nc1ccc(-c2c(-c3ccc(Nc4ncccn4)cc3)c3c(N)ncnc3n2C)cc1` [Example 59], 100 to 250 nM; under `C=C(C)C(=O)Nc1ccc(-c2c(-c3cnn(Cc4ccncc4)c3)c3c(N)ncnc3n2C)cc1` [Example 179], 1000 to 100000 nM.

In the case of `C=C(C)C(=O)Nc1ccc(-c2c(-c3cc(N)c(Oc4ccccn4)c(F)c3)c3c(N)ncnc3n2C)cc1` [Example 127], the IC50 lay in the range of 100 to 250 nM. Under `C=C(C)C(=O)Nc1ccc(-c2c(C3=CCC(C(=O)N4CCCC[C@@H]4C)CC3)c3c(N)ncnc3n2C)cc1` (some centres unmarked) [Example 404] stands 100 to 250 nM. The figure for `C=C(C)C(=O)Nc1ccc(-c2c(-c3ccc(S(=N)(=O)N4CCCC4)cc3)c3c(N)ncnc3n2C)cc1` (centres unmarked) [Example 317] is 250 to 1000 nM; for `C=C(C)C(=O)Nc1ccc(-c2c(-c3ccc4[nH]c(=O)n(C)c4c3)c3c(N)ncnc3n2C)cc1` [Example 203] it is 1000 to 100000 nM; for `CCC(=O)Nc1ccc(-c2c(-c3ccc(Oc4ncccn4)cc3)c3c(N)ncnc3n2C)cc1` [Example 63] it is 1000 to 100000 nM. The figure for `C=C(C)C(=O)Nc1ccc(-c2c(-c3ccc(Oc4ncc(N(C)C)cn4)cc3)c3c(N)ncnc3n2C)cc1` [Example 456] is 250 to 1000 nM; for `C=C(C)C(=O)Nc1ccc(-c2c(-c3ccc(C(=O)N4CCC[C@@H]4C#N)cc3)c3c(N)ncnc3n2C)cc1` [Example 356] it is 100 to 250 nM. The compound `C=CC(=O)Nc1ccc(-c2c(-c3ccccc3)c3c(N)ncnc3n2C)cc1` [Example 76] showed a 50% inhibitory concentration (IC50) of 100 to 250 nM. `C=C(C)C(=O)Nc1ccc(-c2c(-c3ccc(Oc4ccc(Cl)c(C)n4)cc3)c3c(N)ncnc3n2C)cc1` [Example 122] displayed an IC50 of 250 to 1000 nM. The figure for `C=C(C)C(=O)Nc1ccc(-c2c(-c3ccc(C(=O)N4CCCC4)cc3C(F)F)c3c(N)ncnc3n2C)cc1` [Example 588] is 1000 to 100000 nM; for `C=C(C)C(=O)Nc1ccc(-c2c(-c3ccc(Oc4ccccc4)c(OC)c3)c3c(N)ncnc3n2C)cc1` [Example 30] it is 250 to 1000 nM.

`C=C(C)C(=O)Nc1ccc(-c2c(-c3ccc(C(=O)N4CCCC4)cc3)c3c(N)ncnc3n2C)c(CN2CCOCC2)c1` [Example 486] had an IC50 of 1000 to 100000 nM. Under `C=C(C)C(=O)Nc1ccc(-c2c(C3=CC[C@@H](C(=O)N4CC[C@@H](OC)C4)CC3)c3c(N)ncnc3n2C)cc1` (single isomer, unassigned) [Example 593] stands 250 to 1000 nM; under `C=C(C)C(=O)Nc1ccc(-c2c(-c3ccc(=O)n(C4CC4)c3)c3c(N)ncnc3n2C)cc1` [Example 275], 1000 to 100000 nM; under `C=C(C)C(=O)Nc1ccc(-c2c(-c3ccc(S(=N)(=O)NC4CCCC4)cc3)c3c(N)ncnc3n2C)cc1` (centres unmarked) [Example 350], 1000 to 100000 nM. Under `C=CC(=O)N1CCCc2cc(-c3c(-c4ccc(Oc5cccc(C)n5)c(OC)c4)c4c(N)ncnc4n3C)ccc21` [Example 3] stands < 100 nM; under `C=CC(=O)N1CCC(n2cc(-c3c(-c4ccc(F)c(OC)c4)c4c(N)ncnc4n3C)cn2)CC1` [Example 610], 250 to 1000 nM; under `C=CC(=O)N(C)c1ccc(-c2c(-c3ccc(Oc4cccc(C)n4)c(OC)c3)c3c(N)ncnc3n2C)cc1` [Example 6], 100 to 250 nM. Under `C=C(C)C(=O)Nc1ccc(-c2c(-c3ccc(C(=O)NC4CC(CO)C4)cc3)c3c(N)ncnc3n2C)cc1` (centres unmarked) [Example 330] stands 100 to 250 nM. Take `C=C(C)C(=O)Nc1ccc(-c2c(C3=CCCN(C(C)=O)C3)c3c(N)ncnc3n2C)cc1` [Example 136]: the IC50 was in the range of 1000 to 100000 nM. The figure for `C=C(C)C(=O)Nc1ccc(-c2c(-c3ccc(Oc4ncc(F)cn4)c(C)c3)c3c(N)ncnc3n2C)cc1` [Example 109] is 100 to 250 nM. For the compound `C=CC(=O)N1CC(c2c(-c3ccc(Oc4ccccc4)cc3)c3c(N)ncnc3n2C)C1` [Example 604], the IC50 was < 100 nM. The figure for `C=CC(=O)Nc1ccc(-c2c(C3=CCN(C(=O)C(F)(F)F)CC3)c3c(N)ncnc3n2C)cc1` [Example 74] is 250 to 1000 nM. The figure for `C=C(C)C(=O)Nc1ccc(-c2c(-c3cnc4c(c3)OCCN4C)c3c(N)ncnc3n2C)cc1` [Example 214] is 100 to 250 nM; for `C=C(C)C(=O)Nc1ccc(-c2c(-c3ccc(Oc4ncc(OC)cn4)cc3)c3c(N)ncnc3n2C)cc1` [Example 450] it is 250 to 1000 nM. Under `C=C(C)C(=O)Nc1ccc(-c2c(C3=CC4CCC(C3)N4)c3c(N)ncnc3n2C)cc1` (centres unmarked) [Example 168] stands 100 to 250 nM. Take `C=C(C)C(=O)Nc1ccc(-c2c(-c3ccc(Cc4nn[nH]n4)cc3)c3c(N)ncnc3n2C)cc1` [Example 218]: the IC50 was 1000 to 100000 nM. Under `C=C(C)C(=O)Nc1ccc(-c2c(-c3ccc(C(=O)NCCC4COC4)cc3)c3c(N)ncnc3n2C)cc1` [Example 367] stands 250 to 1000 nM; under `C=C(C)C(=O)Nc1ccc(-c2c(-c3cnn(Cc4cccnc4)c3)c3c(N)ncnc3n2C)cc1` [Example 126], 1000 to 100000 nM. The figure for `C=C(C)C(=O)Nc1ccc(-c2c(-c3cnn(Cc4cccc(C)n4)c3)c3c(N)ncnc3n2C)cc1` [Example 439] is 1000 to 100000 nM. Under `C=C(C)C(=O)Nc1ccc(-c2c(C3=CC[C@H](C(=O)N4CC5CC5C4)CC3)c3c(N)ncnc3n2C)cc1` (some centres unmarked) [Example 581] stands 1000 to 100000 nM; under `C=C(C)C(=O)Nc1ccc(-c2c(-c3ccc(C(=O)NCCCOC)cc3)c3c(N)ncnc3n2C)cc1` [Example 333], 100 to 250 nM; under `C=C(C)C(=O)Nc1ccc(-c2c(-c3ccc(Oc4nccc(C)n4)c(OCC)c3)c3c(N)ncnc3n2C)cc1` [Example 491], 1000 to 100000 nM.

Take `C=C(C)C(=O)Nc1ccc(-c2c(-c3ccc(Oc4ncc(F)cn4)nc3)c3c(N)ncnc3n2C)cc1` [Example 453]: the IC50 lay within 1000 to 100000 nM.

Usually IC50 stands for the concentration that gives 50% inhibition. Read a low IC50 as inhibition by little substance.
